Laboratory results published in publication PMC11047712, “Synergistic Antioxidant and Anti-Inflammatory Effects of Phenolic Acid-Conjugated Glutamine–Histidine–Glycine–Valine (QHGV) Peptides Derived from Oysters (Crassostrea talienwhanensis)” (Antioxidants, 2024).

Experiments:
[1] = tested on: inducible nitric oxide synthase (iNos) mRNA; experiment: iNos mRNA expression in LPS-induced RAW 264.7 cells (qRT-PCR); type: cell-based, murine; conditions: peptide 500 μM pretreated 2 h, LPS 0.1 μg/mL 24 h, normalized to Gapdh, n = 3
Experimental: (§2) The peptide and control groups were pretreated with 500 and 0 μM of the peptide solution, respectively, for 2 h, followed by stimulation with 0.1 μg/mL of LPS for 24 h. Total cellular RNA was isolated using the RNeasy Mini Kit (Qiagen, Santa Clara, CA, USA). Total RNA was used to synthesize complementary DNA (cDNA) using the PrimeScript™ 1st strand cDNA synthesis kit (TaKaRa, Kusatsu, Japan). […] The mRNA levels of iNos, Cox-2, and Col1a1 were normalized to that of Gapdh, which is a housekeeping gene. The mRNA levels were quantified using the 2^-ddCt method based on the Ct values.

[2] = tested on: cyclooxygenase-2 (Cox-2) mRNA; experiment: Cox-2 mRNA expression in LPS-induced RAW 264.7 cells (qRT-PCR); type: cell-based, murine; conditions: peptide 500 μM pretreated 2 h, LPS 0.1 μg/mL 24 h, normalized to Gapdh, n = 3
Experimental: as §2

phospho-JNK = experiment: LPS-induced phosphorylation of JNK in RAW 264.7 cells (Western blot); type: cell-based, murine; conditions: peptide 500 µM 2 h, LPS 0.1 μg/mL 15 min, densitometry relative to JNK, n = 3
Experimental: HaCaT (3.0 × 10^5 cells/well) and RAW 264.7 (1.5 × 10^5 cells/well) cells were seeded in the wells of a six-well plate. […] The cells were then washed with cold PBS and lysed in a cold lysis buffer. Cell debris was removed after centrifugation at 12,000× g for 30 min at 4 °C. Protein concentration was determined using the bicinchoninic acid (BCA) protein assay. […] The membranes were blocked with 5% skimmed milk in Tris-buffered saline–Tween (TBS-T) at room temperature for 1 h. After washing, the membranes were incubated overnight in respective primary antibody solutions (anti-phospho-ERK, anti-phospho-JNK, anti-phospho-p38, anti-collagen I, anti-GAPDH or anti-β-actin antibodies) at 4 °C. The membranes were washed with TBS-T and incubated with a horseradish peroxidase-conjugated secondary antibody solution for 1 h at room temperature. They were washed again with TBS-T and PBS and developed using an enhanced chemiluminescence reagent. Images of the immunoblots were scanned with an iBright™ CL1500 Imaging System (Thermo Fisher Scientific, Waltham, MA, USA). The band intensities of phospho-ERK, phospho-JNK, phospho-p38, and collagen I proteins were quantified by densitometric analysis using the ImageJ software 1.8.0 (National Institutes of Health, NIH, Bethesda, MD, USA). […] The levels of collagen I were normalized to those of GAPDH. Images of raw Western blots are shown in the Supplementary Data.

phospho-ERK 1/2 = experiment: LPS-induced phosphorylation of ERK in RAW 264.7 cells (Western blot); type: cell-based, murine; conditions: peptide 500 µM 2 h, LPS 0.1 μg/mL 15 min, densitometry relative to ERK, n = 3
Experimental: (§1) HaCaT (3.0 × 10^5 cells/well) and RAW 264.7 (1.5 × 10^5 cells/well) cells were seeded in the wells of a six-well plate. HaCaT and RAW 264.7 cells were treated with the peptide solutions (500 µM) for 24 and 2 h, respectively, and then stimulated with LPS (0.1 μg/mL) for 15 min. The cells were then washed with cold PBS and lysed in a cold lysis buffer. Cell debris was removed after centrifugation at 12,000× g for 30 min at 4 °C. Protein concentration was determined using the bicinchoninic acid (BCA) protein assay. The four-times-concentrated protein-denaturing buffer (1.25 M Tris-HCl (pH 6.8), glycerol, SDS, 2-mercaptoethanol, and 0.4% bromophenol blue) was added to the cell lysate and the mixture was boiled at 100 °C for 5 min. Proteins were separated by electrophoresis on 10% (for MAPKs) or 12% (for collagen) sodium dodecyl sulfate-polyacrylamide gel and electroblotted onto polyvinylidene fluoride membranes. The membranes were blocked with 5% skimmed milk in Tris-buffered saline–Tween (TBS-T) at room temperature for 1 h. After washing, the membranes were incubated overnight in respective primary antibody solutions (anti-phospho-ERK, anti-phospho-JNK, anti-phospho-p38, anti-collagen I, anti-GAPDH or anti-β-actin antibodies) at 4 °C. The membranes were washed with TBS-T and incubated with a horseradish peroxidase-conjugated secondary antibody solution for 1 h at room temperature. They were washed again with TBS-T and PBS and developed using an enhanced chemiluminescence reagent. Images of the immunoblots were scanned with an iBright™ CL1500 Imaging System (Thermo Fisher Scientific, Waltham, MA, USA). The band intensities of phospho-ERK, phospho-JNK, phospho-p38, and collagen I proteins were quantified by densitometric analysis using the ImageJ software 1.8.0 (National Institutes of Health, NIH, Bethesda, MD, USA). To normalize for protein loading, antibodies against β-actin and GAPDH were used, and phospho-ERK 1/2, phospho-JNK, and phospho-p38 phosphorylation levels were expressed relative to those of […]. The levels of collagen I were normalized to those of GAPDH. Images of raw Western blots are shown in the Supplementary Data.

phospho-p38 = experiment: LPS-induced phosphorylation of p38 in RAW 264.7 cells (Western blot); type: cell-based, murine; conditions: peptide 500 µM 2 h, LPS 0.1 μg/mL 15 min, densitometry relative to p38, n = 3
Experimental: HaCaT (3.0 × 10^5 cells/well) and RAW 264.7 (1.5 × 10^5 cells/well) cells were seeded in the wells of a six-well plate. HaCaT and RAW 264.7 cells were treated with the peptide solutions (500 µM) for 24 and 2 h, respectively, and then stimulated with LPS (0.1 μg/mL) for 15 min. The cells were then washed with cold PBS and lysed in a cold lysis buffer. Cell debris was removed after centrifugation at 12,000× g for 30 min at 4 °C. Protein concentration was determined using the bicinchoninic acid (BCA) protein assay. The four-times-concentrated protein-denaturing buffer (1.25 M Tris-HCl (pH 6.8), glycerol, SDS, 2-mercaptoethanol, and 0.4% bromophenol blue) was added to the cell lysate and the mixture was boiled at 100 °C for 5 min. Proteins were separated by electrophoresis on 10% (for MAPKs) or 12% (for collagen) sodium dodecyl sulfate-polyacrylamide gel and electroblotted onto polyvinylidene fluoride membranes. The membranes were blocked with 5% skimmed milk in Tris-buffered saline–Tween (TBS-T) at room temperature for 1 h. […] The band intensities of phospho-ERK, phospho-JNK, phospho-p38, and collagen I proteins were quantified by densitometric analysis using the ImageJ software 1.8.0 (National Institutes of Health, NIH, Bethesda, MD, USA). […]

[3] = ABTS radical scavenging activity test; type: biochemical; conditions: for Anti-oxidant Rank (ABTS radical scavenging activity rank) / IC50: Table S1; for Anti-oxidant Rank (ABTS radical scavenging activity rank): rank by IC50, 1 = most active; for IC50: tested 0.000001-1 mM, calculated by GraphPad Prism 5, unit inferred; for IC50 / ABTS radical scavenging activity: 5 min at room temperature, absorbance 734 nm; for ABTS radical scavenging activity: 0.01 mM, n = 3; for ABTS antioxidant activity (in words): various concentrations between 0.000001 and 1 mM
Experimental: The ABTS radical cation solution was prepared by mixing 1 mL of a 14 mM ABTS solution and 1 mL of 4.9 mM potassium persulfate. The mixture reacted in the dark at room temperature for 16 h. The ABTS solution was diluted with PBS (1:50, v/v), and 190 μL of it reacted with 10 μL of the sample solution in a 96-well plate at room temperature for 5 min. The absorbance at 734 nm was measured using a SpectraMax iD3 microplate reader (Molecular Devices, San Jose, CA, USA), and the ABTS radical scavenging activity rate was calculated using the following equation:ABTS radical scavenging activity (%) = 1 − (absorbance of sample/absorbance of water) × 100

[4] = tested on: collagen type I alpha 1 chain (Col1a1) mRNA; experiment: Collagen I (Col1a1) mRNA level in HaCaT cells (RT-PCR); type: cell-based, human; conditions: peptide 500 μM, normalized to Gapdh, n = 3
Experimental: The peptide and control groups were pretreated with 500 and 0 μM of the peptide solution, respectively, for 2 h, followed by stimulation with 0.1 μg/mL of LPS for 24 h. Total cellular RNA was isolated using the RNeasy Mini Kit (Qiagen, Santa Clara, CA, USA). Total RNA was used to synthesize complementary DNA (cDNA) using the PrimeScript™ 1st strand cDNA synthesis kit (TaKaRa, Kusatsu, Japan). The sequences of oligonucleotide primers for amplifying inducible nitric oxide synthase (iNos), cyclooxygenase-2 (Cox-2), and collagen type I alpha 1 chain (Col1a1) synthesized from Bioneer (Daejeon, Republic of Korea) and glyceraldehyde-3-phosphate dehydrogenase (Gapdh) synthesized from Macrogen (Seoul, Republic of Korea) are listed in Table 1. […] The mRNA levels of iNos, Cox-2, and Col1a1 were normalized to that of Gapdh, which is a housekeeping gene. The mRNA levels were quantified using the 2^-ddCt method based on the Ct values.

HaCaT cells = experiment: Cell viability (MTT assay) in HaCaT cells; type: cell-based, human; conditions: 0.032-500 µM, 24 h
Experimental: Cell viability was assessed using an MTT assay. HaCaT cells (1.0 × 10^4 cells/mL) were seeded in a 96-well plate and cultured for 24 h. Thereafter, the cells were treated with the peptide solution (0–500 µM) for 24 h. […] The MTT solution was prepared by dissolving it in phosphate-buffered saline (PBS) at a concentration of 5 mg/mL. 10 μL of the prepared MTT solution was added to each well, and the plate was incubated for 4 h. After removing the culture medium, 200 μL of dimethyl sulfoxide (DMSO) was added to each well to solubilize any deposited formazan. The absorbance at 560 nm was measured using an Epoch microplate Spectrophotometer (BioTek, Winooski, VT, USA).

[5] = tested on: collagen I (COL1A1) protein; experiment: Collagen I (COL1A1) protein level in HaCaT cells (Western blot); type: cell-based, human; conditions: peptide 500 µM, 24 h, Western blot densitometry normalized to GAPDH, n = 3
Experimental: as §1

[6] = DPPH radical scavenging activity test; type: biochemical; conditions: various concentrations; 0.1 mM DPPH, 30 min in the dark at room temperature, absorbance 517 nm
Experimental: The DPPH method is based on a mechanism similar to the ABTS method. […] In a 96-well plate, 100 μL of the DPPH solution and 100 μL of the sample were treated and incubated at room temperature in the dark for 30 min. Absorbance at 517 nm was then measured using a SpectraMax iD3 microplate reader (Molecular Devices, San Jose, CA, USA). The solvents used for the samples were methanol for peptide samples and ethanol for phenolic acid samples.

Compound | reduction of LPS-induced iNos mRNA level [1] | reduction of LPS-induced Cox-2 mRNA level [2] | decrease of p-ERK level (phospho-ERK 1/2) | Anti-oxidant Rank (ABTS radical scavenging activity rank) [3] | IC50 [3] | ABTS radical scavenging activity [3] | increase of collagen I protein level [5] | also measured
C[C@@H]1C[C@H]2[C@@H]3CCC4=CC(=O)C=C[C@]4(C)[C@@]3(F)[C@@H](O)C[C@]2(C)[C@@]1(O)C(=O)CO [DEX, Dexamethasone, reference compound] | approximately 80% | ~91% | markedly reduced | – | – | – | – | decrease of p-JNK level (phospho-JNK): markedly reduced; decrease of p-p38 level (phospho-p38): markedly reduced
γ-L-glutamyl-L-cysteinyl-glycine [Glutathione, reference compound] | – | – | – | 3 | 14.7 µM | – | – | –
N-(1-oxohexadecyl) glycyl-L-histidyl-L-lysine [PTP-1, reference compound] | – | – | – | – | – | – | – | increase of collagen I mRNA level compared with the negative control group [4]: 135%
O=C1O[C@H]([C@@H](O)CO)C(O)=C1O [L-ascorbic acid, reference compound] | – | – | – | 7 | 23.8 µM | 20% | – | –
QHGV [glutamine–histidine–glycine–valine] | reduced | reduced | – | 8 | – | – | 147% | ABTS antioxidant activity (in words) [3]: did not exhibit high antioxidant activity; cytotoxicity (in words) (HaCaT cells): no cytotoxicity; increase of collagen I mRNA level compared with the negative control group [4]: 26%
O=C(O)c1cc(O)c(O)c(O)c1 [Gallic acid, gallic acid, reference compound] | – | – | – | 1 | 2.49 µM | – | – | ABTS antioxidant activity (in words) [3]: highest antioxidant activity
COc1cc(C(=O)O)ccc1O [vanillic acid, reference compound] | – | – | – | – | – | – | – | DPPH radical scavenging activity (in words) [6]: weak antioxidant activity
feruloyl-QHGV [Fe-QHGV] | did not significantly affect | 11% | – | 6 | 17.8 µM | 31% | 457% | decrease of p-JNK level (phospho-JNK): 23%
β-alanyl-L-histidine [carnosine, reference compound] | no significant effect | no significant effect | – | – | – | – | – | –
vanilloyl-QHGV [Va-QHGV] | did not significantly affect | 16% | 24% | 4 | 16.4 µM | 34% | 163% | DPPH radical scavenging activity (in words) [6]: did not exhibit antioxidant effects
sinapoyl-QHGV [Si-QHGV] | did not significantly affect | 15% | 5% | – | – | 27% | 363% | –
glycyl-L-histidyl-L-lysine-Cu (II) [GHK-Cu, reference compound] | 45% | 24% | – | – | – | – | – | –
caffeoyl-QHGV [Ca-QHGV] | 26% | 8% | 9% | 5 | 16.7 µM | 33% | 316% | decrease of p-JNK level (phospho-JNK): 10%; decrease of p-p38 level (phospho-p38): 5%
